Test results reported in US7989394B2, “Substituted 1-(azolin-2-yl)-amino-2-aryl-1-hetaryl-ethane compounds” (BASF SE, priority 2006, dated 2011).

Assays:
[1] = system: Cotton Aphid (Aphis gossypii); assay: Cotton aphid (Aphis gossypii) mortality on dipped cotton plants; format: in vivo; conditions: 120 h, cotton cotyledons dipped, aphid mortality after 5 days, read-out: mortality in comparison with untreated controls
Experimental: I. Cotton Aphid (Aphis gossypii)
(§1) Cotton plants in the cotyledon stage (variety ‘Delta Pine’) are infested with approximately 100 laboratory-reared aphids by placing infested leaf sections on top of the test plants. The leaf sections are removed after 24 hours. The cotyledons of the intact plants are dipped into gradient solutions of the test compound. Aphid mortality on the treated plants, relative to mortality on check plants, is determined after 5 days.

[2] = system: Green Peach Aphid (Myzus persicae); assay: Green peach aphid (Myzus persicae) mortality on dipped pepper plants; format: in vivo; conditions: 120 h, pepper leaves dipped, aphid mortality after 5 days, read-out: mortality in comparison with untreated controls
Experimental: II. Green Peach Aphid (Myzus persicae)
as §1, with “Pepper” for “Cotton”, “2nd leaf-pair” for “cotyledon”, “‘California Wonder’)” for “‘Delta Pine’)”, “40” for “100”, “leaves” for “cotyledons”

Row | Compound | mortality at 300 ppm [1] | mortality at 300 ppm [2]
1 | Cc1cc(C)cc(CC(NC(=S)NCCO)c2cccs2)c1 (racemic) [Example 6, 1-[2-(3,5-Dimethyl-phenyl)-1-thien-2-yl-ethyl]-3-(2-hydroxy-ethyl)-thiourea] | > 70% | > 70%
2 | Cc1cc(C)cc(CC(NC2=NCCS2)c2cccs2)c1 (racemic) [Example 22, (4,5-Dihydro-thiazol-2-yl)-[2-(3,5-dimethyl-phenyl)-1-thien-2-yl-ethyl]-amine] | > 70% | > 70%
3 | Cc1cc(C)cc(CC(NC2=NCCS2)c2ccco2)c1 (racemic) [Example 23, (4,5-Dihydro-thiazol-2-yl)-[2-(3,5-dimethyl-phenyl)-1-furan-2-yl-ethyl]-amine] | > 70% | > 70%
